Assay results as given in patent US12275731B2, “Azaindole inhibitors of wild-type and mutant forms of LRRK2” (DANA-FARBER CANCER INSTITUTE, INC., priority 2018, dated 2025).

Experiments:
Test in all cases: KinomeScan profiling
Assay type in all cases: binding
LYN = LYN (Homo sapiens, UniProt P07948); conditions: read-out: % control
In short: (§1)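 Compounds were screened at 1 μM in DMSO across a 468-kinase KinomeScan panel. Binding was expressed as % control, scaled between a positive control (0%) and DMSO (100%) using luminescence signal. A value under 35% counted as active.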

p38-gamma = biological target: T1, p38-gamma (Homo sapiens, UniProt P53778); conditions: read-out: % control
T1 sequence (P53778 1-367): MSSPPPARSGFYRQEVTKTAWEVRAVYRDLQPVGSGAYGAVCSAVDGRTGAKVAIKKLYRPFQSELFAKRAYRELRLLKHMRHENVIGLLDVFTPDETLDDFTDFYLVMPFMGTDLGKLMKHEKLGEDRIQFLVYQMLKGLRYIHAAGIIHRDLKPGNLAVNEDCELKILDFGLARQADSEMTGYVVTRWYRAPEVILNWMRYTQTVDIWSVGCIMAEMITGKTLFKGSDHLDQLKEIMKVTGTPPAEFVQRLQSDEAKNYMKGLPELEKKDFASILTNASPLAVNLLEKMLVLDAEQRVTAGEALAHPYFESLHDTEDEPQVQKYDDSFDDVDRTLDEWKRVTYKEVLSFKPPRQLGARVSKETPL
In short: as §1

DRAK1 = biological target: T2, DRAK1 (Homo sapiens, UniProt Q9UEE5); conditions: DRAK1, 1 μM; read-out: % control
T2 sequence (Q9UEE5 1-414): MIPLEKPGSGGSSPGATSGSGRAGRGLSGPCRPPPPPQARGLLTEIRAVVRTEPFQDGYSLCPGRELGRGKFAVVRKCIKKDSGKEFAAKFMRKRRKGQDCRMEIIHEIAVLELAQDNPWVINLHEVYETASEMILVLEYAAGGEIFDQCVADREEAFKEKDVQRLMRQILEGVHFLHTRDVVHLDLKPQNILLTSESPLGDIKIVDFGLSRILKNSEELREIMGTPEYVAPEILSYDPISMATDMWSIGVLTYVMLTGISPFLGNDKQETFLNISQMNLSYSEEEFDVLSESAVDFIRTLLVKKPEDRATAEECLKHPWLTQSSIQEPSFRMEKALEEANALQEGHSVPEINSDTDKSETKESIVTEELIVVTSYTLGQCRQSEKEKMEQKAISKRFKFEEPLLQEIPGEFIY
In short: as §1

MINK = MINK (Homo sapiens, UniProt Q8N4C8); conditions: read-out: % control
Chain of MINK (Q8N4C8 whole entry): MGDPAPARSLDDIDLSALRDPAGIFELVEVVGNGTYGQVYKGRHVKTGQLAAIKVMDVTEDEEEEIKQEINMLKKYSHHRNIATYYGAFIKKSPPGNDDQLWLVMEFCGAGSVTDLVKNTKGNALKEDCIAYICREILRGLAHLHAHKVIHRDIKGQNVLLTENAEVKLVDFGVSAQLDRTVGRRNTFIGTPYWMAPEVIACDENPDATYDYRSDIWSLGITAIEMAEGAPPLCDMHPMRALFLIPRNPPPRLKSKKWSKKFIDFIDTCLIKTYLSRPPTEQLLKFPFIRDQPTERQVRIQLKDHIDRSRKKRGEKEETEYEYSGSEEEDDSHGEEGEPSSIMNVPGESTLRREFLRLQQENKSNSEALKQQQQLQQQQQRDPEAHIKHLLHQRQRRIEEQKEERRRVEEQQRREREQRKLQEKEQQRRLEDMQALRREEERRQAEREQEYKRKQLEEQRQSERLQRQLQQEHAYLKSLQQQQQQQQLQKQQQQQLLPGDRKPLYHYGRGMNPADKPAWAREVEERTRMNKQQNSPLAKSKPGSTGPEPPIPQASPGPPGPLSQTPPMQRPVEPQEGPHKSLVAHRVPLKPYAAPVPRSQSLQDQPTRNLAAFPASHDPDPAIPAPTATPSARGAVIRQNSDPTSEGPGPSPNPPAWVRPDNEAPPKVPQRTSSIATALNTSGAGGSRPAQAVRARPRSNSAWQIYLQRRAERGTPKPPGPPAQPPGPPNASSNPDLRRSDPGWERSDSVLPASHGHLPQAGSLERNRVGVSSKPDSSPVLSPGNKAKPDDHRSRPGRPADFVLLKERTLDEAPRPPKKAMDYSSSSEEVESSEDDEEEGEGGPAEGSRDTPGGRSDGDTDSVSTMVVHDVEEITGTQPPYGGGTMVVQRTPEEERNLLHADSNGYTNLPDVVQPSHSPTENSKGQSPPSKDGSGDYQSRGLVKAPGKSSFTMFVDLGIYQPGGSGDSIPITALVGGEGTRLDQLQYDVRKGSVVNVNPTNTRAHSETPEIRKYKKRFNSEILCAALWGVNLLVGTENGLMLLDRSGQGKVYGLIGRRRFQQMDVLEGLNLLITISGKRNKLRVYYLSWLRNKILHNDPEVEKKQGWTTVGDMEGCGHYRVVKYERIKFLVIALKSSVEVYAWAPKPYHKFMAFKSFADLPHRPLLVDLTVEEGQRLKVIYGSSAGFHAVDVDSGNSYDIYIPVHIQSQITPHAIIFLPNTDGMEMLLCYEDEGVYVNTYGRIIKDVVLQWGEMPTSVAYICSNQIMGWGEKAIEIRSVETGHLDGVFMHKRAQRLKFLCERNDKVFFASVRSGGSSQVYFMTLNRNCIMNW
In short: as §1

PRKG1 = biological target: T3, PRKG1 (Homo sapiens, UniProt Q13976); conditions: PRKG1, 1 μM; read-out: % control
T3 sequence (Q13976 1-671): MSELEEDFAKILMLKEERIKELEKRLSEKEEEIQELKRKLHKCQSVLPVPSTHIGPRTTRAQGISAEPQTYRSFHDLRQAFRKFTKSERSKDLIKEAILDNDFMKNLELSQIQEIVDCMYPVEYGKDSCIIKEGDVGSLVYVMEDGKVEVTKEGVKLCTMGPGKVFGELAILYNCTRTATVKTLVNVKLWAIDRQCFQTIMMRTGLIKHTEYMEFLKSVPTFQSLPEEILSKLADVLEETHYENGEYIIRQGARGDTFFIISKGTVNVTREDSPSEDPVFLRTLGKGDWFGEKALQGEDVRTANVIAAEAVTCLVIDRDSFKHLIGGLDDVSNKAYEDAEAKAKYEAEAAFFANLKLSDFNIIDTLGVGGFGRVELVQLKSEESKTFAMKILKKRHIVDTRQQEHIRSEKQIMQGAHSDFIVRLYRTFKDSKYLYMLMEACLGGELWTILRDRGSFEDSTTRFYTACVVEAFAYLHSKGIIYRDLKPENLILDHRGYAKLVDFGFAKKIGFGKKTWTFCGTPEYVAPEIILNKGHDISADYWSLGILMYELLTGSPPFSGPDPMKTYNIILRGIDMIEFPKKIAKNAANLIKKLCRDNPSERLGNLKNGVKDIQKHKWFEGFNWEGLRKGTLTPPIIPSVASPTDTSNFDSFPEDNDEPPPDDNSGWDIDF
In short: as §1

RET(V804L) = RET(V804L) (Homo sapiens, UniProt P07949, V804L); conditions: read-out: % control
Chain of RET(V804L) (P07949 29-1114 V804L): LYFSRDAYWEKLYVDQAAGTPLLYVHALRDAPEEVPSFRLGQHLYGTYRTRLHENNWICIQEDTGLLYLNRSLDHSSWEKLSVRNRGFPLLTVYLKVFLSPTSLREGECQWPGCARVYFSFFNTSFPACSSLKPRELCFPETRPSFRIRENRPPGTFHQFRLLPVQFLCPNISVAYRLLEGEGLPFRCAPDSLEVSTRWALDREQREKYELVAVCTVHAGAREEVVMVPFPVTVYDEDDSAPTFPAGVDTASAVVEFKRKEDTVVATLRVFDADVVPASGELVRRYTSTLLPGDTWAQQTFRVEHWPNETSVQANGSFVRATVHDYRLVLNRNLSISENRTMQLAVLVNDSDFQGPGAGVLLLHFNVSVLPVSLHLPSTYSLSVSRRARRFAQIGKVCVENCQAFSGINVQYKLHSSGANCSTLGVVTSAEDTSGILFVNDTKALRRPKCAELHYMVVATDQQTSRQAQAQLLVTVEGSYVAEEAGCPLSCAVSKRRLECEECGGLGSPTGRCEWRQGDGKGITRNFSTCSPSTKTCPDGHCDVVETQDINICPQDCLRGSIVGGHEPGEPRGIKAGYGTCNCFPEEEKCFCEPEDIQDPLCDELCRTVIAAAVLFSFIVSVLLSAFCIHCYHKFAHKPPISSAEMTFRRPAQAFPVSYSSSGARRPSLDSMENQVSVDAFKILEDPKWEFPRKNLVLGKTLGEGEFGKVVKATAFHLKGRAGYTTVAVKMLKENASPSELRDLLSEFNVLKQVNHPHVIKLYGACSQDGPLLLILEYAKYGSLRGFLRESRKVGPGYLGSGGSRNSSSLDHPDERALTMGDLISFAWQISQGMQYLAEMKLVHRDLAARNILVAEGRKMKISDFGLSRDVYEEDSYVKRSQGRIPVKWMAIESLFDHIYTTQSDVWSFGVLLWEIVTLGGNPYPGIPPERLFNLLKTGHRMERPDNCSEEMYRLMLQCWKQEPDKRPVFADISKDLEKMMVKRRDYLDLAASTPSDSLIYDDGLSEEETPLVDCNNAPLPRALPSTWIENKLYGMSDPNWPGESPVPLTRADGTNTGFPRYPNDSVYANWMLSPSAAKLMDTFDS
In short: as §1

[1] = biological target: T4, ABL1(M351T)-phosphorylated (Homo sapiens, UniProt P00519, M351T); conditions: read-out: % control
T4 construct: purchased KinomeScan®
In short: as §1

CAMK1D = CAMK1D (Homo sapiens, UniProt Q8IU85); conditions: read-out: % control
Chain of CAMK1D (Q8IU85 whole entry): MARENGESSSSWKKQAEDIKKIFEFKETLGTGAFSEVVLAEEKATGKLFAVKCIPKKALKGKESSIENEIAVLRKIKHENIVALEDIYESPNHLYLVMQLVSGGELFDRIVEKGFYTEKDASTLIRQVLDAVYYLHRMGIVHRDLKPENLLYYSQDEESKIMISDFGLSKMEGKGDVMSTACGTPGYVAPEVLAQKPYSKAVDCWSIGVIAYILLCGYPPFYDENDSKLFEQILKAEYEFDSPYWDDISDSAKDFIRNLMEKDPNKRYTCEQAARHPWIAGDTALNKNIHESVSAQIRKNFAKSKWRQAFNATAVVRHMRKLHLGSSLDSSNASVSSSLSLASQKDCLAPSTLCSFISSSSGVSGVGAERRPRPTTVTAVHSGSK
In short: as §1

ADCK4 = biological target: T5, ADCK4 (Homo sapiens, UniProt Q96D53); conditions: ADCK4, 1 μM; read-out: % control
T5 construct: purchased KinomeScan®
T5 sequence (Q96D53 1-544): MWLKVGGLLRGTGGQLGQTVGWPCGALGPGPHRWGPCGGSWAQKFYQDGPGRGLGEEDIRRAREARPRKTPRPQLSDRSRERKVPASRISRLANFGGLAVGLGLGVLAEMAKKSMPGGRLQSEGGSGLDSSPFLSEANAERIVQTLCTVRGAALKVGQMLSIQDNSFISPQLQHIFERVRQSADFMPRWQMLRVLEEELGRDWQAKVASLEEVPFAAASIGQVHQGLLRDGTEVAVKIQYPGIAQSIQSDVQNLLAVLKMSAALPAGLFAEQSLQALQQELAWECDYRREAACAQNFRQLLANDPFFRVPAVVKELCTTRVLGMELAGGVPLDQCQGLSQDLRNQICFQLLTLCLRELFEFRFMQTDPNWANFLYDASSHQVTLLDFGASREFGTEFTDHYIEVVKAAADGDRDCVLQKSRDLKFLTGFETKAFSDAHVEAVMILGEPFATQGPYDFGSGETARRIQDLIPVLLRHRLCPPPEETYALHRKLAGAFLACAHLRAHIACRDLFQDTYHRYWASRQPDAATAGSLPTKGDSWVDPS
In short: as §1

EPHA4 = EPHA4 (Homo sapiens, UniProt P54764); conditions: EPHA4, 1 μM; read-out: % control
Chain of EPHA4 (P54764 20-986): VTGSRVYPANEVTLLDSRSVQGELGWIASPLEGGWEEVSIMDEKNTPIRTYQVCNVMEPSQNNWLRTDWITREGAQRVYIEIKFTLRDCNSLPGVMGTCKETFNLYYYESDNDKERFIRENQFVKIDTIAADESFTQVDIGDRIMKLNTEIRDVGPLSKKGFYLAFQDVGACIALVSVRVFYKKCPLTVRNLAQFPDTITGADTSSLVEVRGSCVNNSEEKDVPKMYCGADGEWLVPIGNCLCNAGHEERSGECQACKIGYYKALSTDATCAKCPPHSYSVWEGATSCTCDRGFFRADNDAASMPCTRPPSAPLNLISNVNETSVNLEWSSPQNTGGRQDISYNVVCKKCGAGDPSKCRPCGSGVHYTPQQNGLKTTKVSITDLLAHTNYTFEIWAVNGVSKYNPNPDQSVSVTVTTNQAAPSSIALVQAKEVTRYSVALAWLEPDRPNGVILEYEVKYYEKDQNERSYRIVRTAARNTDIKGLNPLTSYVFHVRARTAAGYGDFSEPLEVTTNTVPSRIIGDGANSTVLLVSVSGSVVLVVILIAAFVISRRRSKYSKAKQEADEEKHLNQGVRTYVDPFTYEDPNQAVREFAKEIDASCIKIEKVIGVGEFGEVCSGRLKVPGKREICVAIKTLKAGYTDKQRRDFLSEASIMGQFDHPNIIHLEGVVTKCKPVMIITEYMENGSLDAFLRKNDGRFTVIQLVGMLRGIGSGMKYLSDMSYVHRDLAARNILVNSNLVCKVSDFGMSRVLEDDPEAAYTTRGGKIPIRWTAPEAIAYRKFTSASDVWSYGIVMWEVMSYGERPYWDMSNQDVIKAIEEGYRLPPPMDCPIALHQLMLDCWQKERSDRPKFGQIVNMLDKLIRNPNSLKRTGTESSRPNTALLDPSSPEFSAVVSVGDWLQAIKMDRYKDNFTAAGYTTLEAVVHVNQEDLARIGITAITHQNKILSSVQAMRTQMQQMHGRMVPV
In short: as §1

Chain of LYN (P07948 whole entry): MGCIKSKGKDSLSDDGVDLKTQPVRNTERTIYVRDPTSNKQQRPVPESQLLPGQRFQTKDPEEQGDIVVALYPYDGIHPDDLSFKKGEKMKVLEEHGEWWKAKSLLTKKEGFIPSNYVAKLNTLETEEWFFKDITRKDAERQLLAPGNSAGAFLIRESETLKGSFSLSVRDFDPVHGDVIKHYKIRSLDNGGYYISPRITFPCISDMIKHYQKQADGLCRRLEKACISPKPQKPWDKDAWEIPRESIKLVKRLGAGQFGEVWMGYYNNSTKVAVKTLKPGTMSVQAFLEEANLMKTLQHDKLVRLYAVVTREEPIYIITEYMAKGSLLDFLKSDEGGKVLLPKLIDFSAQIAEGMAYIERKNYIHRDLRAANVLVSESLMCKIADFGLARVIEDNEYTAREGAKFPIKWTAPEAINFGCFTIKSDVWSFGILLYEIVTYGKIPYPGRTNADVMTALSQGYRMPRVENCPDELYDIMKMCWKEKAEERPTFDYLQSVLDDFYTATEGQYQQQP

CNc1c(-c2cnn([C@H]3CCN(C(C)=O)C[C@@H]3F)c2)cnc2[nH]cc(Cl)c12 [Compound 77, 1-((3S,4S)-4-(4-(3-chloro-4-(methylamino)-1H-pyrrolo[2,3-b]pyridin-5-yl)-1H-pyrazol-1-yl)-3-fluoropiperidin-1-yl)ethan-1-one]
remaining binding at 1 µM (LYN): 99%
remaining binding at 1 µM (p38-gamma): 97%
remaining binding at 1 µM (DRAK1): 81%
remaining binding at 1 µM (MINK): 17%
remaining binding at 1 µM (PRKG1): 100%
remaining binding at 1 µM (RET(V804L)): 45%
remaining binding at 1 µM [1]: 75%
remaining binding at 1 µM (CAMK1D): 85%
remaining binding at 1 µM (ADCK4): 100%
remaining binding at 1 µM (EPHA4): 96%

O=C(c1ccc(-c2cnc3[nH]cc(Cl)c3c2NC2CCCC2)cc1)N1CCC(N2CCOCC2)CC1 [Compound 101, (4-(3-chloro-4-(cyclopentylamino)-1H-pyrrolo[2,3-b]pyridin-5-yl)phenyl)(4-morpholinopiperidin-1-yl)methanone]
remaining binding at 1 µM (LYN): 100%
remaining binding at 1 µM (p38-gamma): 79%
remaining binding at 1 µM (DRAK1): 100%
remaining binding at 1 µM (MINK): 62%
remaining binding at 1 µM (PRKG1): 89%
remaining binding at 1 µM (RET(V804L)): 97%
remaining binding at 1 µM [1]: 93%
remaining binding at 1 µM (CAMK1D): 100%
remaining binding at 1 µM (ADCK4): 100%
remaining binding at 1 µM (EPHA4): 88%

CNc1c(-c2ccc(C(=O)N3CCC(N4CCOCC4)CC3)cc2)cnc2[nH]cc(Cl)c12 [Compound 96, (4-(3-chloro-4-(methylamino)-1H-pyrrolo[2,3-b]pyridin-5-yl)phenyl)(4-morpholinopiperidin-1-yl)methanone]
remaining binding at 1 µM (LYN): 100%
remaining binding at 1 µM (p38-gamma): 92%
remaining binding at 1 µM (DRAK1): 56%
remaining binding at 1 µM (MINK): 6%
remaining binding at 1 µM (PRKG1): 100%
remaining binding at 1 µM (RET(V804L)): 59%
remaining binding at 1 µM [1]: 71%
remaining binding at 1 µM (CAMK1D): 69%
remaining binding at 1 µM (ADCK4): 100%
remaining binding at 1 µM (EPHA4): 100%
